Measured values as given in patent publication US20240260578A1, “HERBICIDAL COMPOSITIONS AND RELATED METHODS” (BELCHIM Crop Protection USA LLC, priority 2023, published 2024).
Several values for one entry are separate records, joined by “and”; a condition that tells them apart may be missing. Equal entries are not always repeated.

Columns and labels:
Assay type in all cases: in vivo
[1] = system: green Kyllinga (Kyllinga brevifolia); assay: Post-emergent control of green Kyllinga, Hampstead, North Carolina (Example 3); details: 35 DAT, rates per Table 3
Method: (§1) A study was conducted to evaluate and compare the post-emergent control of green Kyllinga (Kyllinga brevifolia) versus the industry standards of Sulfentrazone Select or Halosulfuron 75 WDG. The study was conducted in Hampstead, North Carolina at Old Pointe Country Club. A randomized block design with four replications was utilized. Treatments were applied with a CO2 pressurized spray system. Irrigations were suspended for at least 24 hours after application.

Yellow Nutsedge = assay: Post-emergent control of Yellow Nutsedge, Hampstead, North Carolina (Example 4); details: 35 DAT, rates per Table 5
Method: as §1, with “Yellow Nutsedge” for “green Kyllinga (Kyllinga brevifolia)”, “application. [table]” for “application.”

[2] = system: Yellow nutsedge (Cypersus esculentus); assay: Field trial, post-emergent control of established Yellow nutsedge (Example 1); details: 10 DAT, pyridate 24 fluid ounces/acre, sulfentrazone 12 fluid ounces/acre, visual estimate vs untreated plot, non-replicated
Method: Field trials were conducted to evaluate the efficacy of pyridate herbicide alone and in combination with sulfentrazone when applied in a post-emergent manner to established Yellow nutsedge (Cypersus esculentus). The field trial was conducted alongside of a gravel path on the Corbett Farm located Batten Pond Road in Selma, NC 27576. Yellow nutsedge was established and ranged from 8-12 inches in height. The distribution of weeds in the plots was uniform throughout this location.
Individual treatments were applied on a 1×4 meter squared plot area. The experimental design was a non-replicated linear strip plot. The applications were made with a RYOBI electric 4 gallon backpack sprayer equipped with 11004 nozzles with a spray pressure of 35 psi calibrated to deliver about 40 gallons per acre spray volume, respectively. All applications were applied on the same day. The wind speed was less than 10 mph at time of application.
Pyridate used in this trial was a five pound active ingredient per gallon emulsifiable concentrate (EC) marketed by Belchim Crop Protection as Tough® 5EC Herbicide. The sulfentrazone used in this trial was Sulfentrazone 4L Select marketed by Prime Source, a division of Albaugh, LLC. […]

Row | Structure (SMILES) | Percentage Control [1] [%] | Percentage Control (Yellow Nutsedge) [%] | Percentage (%) Control 10 Days after Treatment (DAT) [2]
1 | Cc1nn(-c2cc(NS(C)(=O)=O)c(Cl)cc2Cl)c(=O)n1C(F)F [Sulfentrazone, sulfentrazone] | 43.3 | 60 | approximately 70% and 70%
2 | CCCCCCCCSC(=O)Oc1cc(Cl)nnc1-c1ccccc1 [Pyridate, pyridate] | – | – | approximately 20% and 20%
